This is an account of results in patent publication US5958445A, “Oral Formulations of S(+)-etodolac” (priority 1998, dated 1999).

In brackets after ≈: the same amount, converted by molar mass. Where two headings read alike, the source gives them in different places.

One data set in a line: physchem. The data set is classed as physicochemical. How it is done:
Equilibrium solubility data for S(+)-etodolac based on pH was determined by placing excess amounts of the S(+)-etodolac and about 5 mL of the dissolution medium in screw-capped vials which were covered with aluminum foil and then tumbled in a 25° C. water bath for 3 days. Slurries were filtered through […] Gelman disposable filters. Filtrates were appropriately diluted with their dissolution medium and analyzed by a Cary 210 UV-VIS spectrophotometer at 278 nm.
The dissolution media used for the pH-solubility profile and ionic strength effect were HCl, HAc--NaAc, KH2 PO4 --NaOH, K2 CO3 --KHCO3, H3 BO3 --NaOH, and NaOH solutions, where the ionic strengths of media were adjusted to be 0.1 by the addition of NaCl. Those solvent systems used for cosolvent solubilization were various ratios of PEG 400, ethanol, triethanolamine (TEA), and dimethylacetamide (DMA) to aqueous solutions. pH values of the slurries were measured before and after equilibrium.

The subject of the next data set is animal models. As to conditions: in vivo; cited from earlier work.
For data set [1] the following is noted: Physicians' Desk Reference, 1995; cited from earlier work.
In the next data set the test system is acute pain. As to conditions: cited from earlier work.
For data set [2] the following is noted: in vivo; cited from earlier work.
Data set [3] can be described thus: Solubility in words (Physicians' Desk Reference and description). The data set is classed as physicochemical. The settings on record: acid form.
For data set [4] the following is noted: J. Med. Chem. 1983, 26, 1778-1780; cited from earlier work.
The mark [5] stands for this setting: 20% ethanol, organic solvent or mixture.
[6] abbreviates: 20% peg 400, organic solvent or mixture.
[7] abbreviates: 40% ethanol, organic solvent or mixture.
[8] abbreviates: 40% peg 400, organic solvent or mixture.
Where [9] appears, read: 60% ethanol, organic solvent or mixture.
Setting [10] is: 60% peg 400, organic solvent or mixture.
Where [11] appears, read: 80% ethanol, organic solvent or mixture.
Where [12] appears, read: 80% peg 400, organic solvent or mixture.
Where [13] appears, read: 100% ethanol, organic solvent or mixture.
The mark [14] stands for this setting: 100% triethanolamine, organic solvent or mixture.

The term solubility denotes the dissolved amount per volume that the medium holds. One may read the Solubility as how much of the substance goes into solution per volume. Low values mean a poorly soluble substance, high ones a readily soluble substance. Turning to `CCc1cccc2c3c([nH]c12)C(CC)(CC(=O)O)OCC3` (racemic) [etodolac, (±) 1,8-diethyl-1,3,4,9-tetrahydropyrano[3,4-b]indole-1-acetic acid], the solubility at 72 h in “physchem” (2% triethanolamine) was 37.7 mg/mL (≈ 131 mM); in the data set “physchem” (4% triethanolamine), 75.9 mg/mL (≈ 264 mM); in the data set “physchem” (6% triethanolamine) it was 122 mg/mL (≈ 423 mM); in “physchem” (8% triethanolamine), 226 mg/mL (≈ 785 mM); in the data set “physchem” (10% dimethylacetamide), 0.468 mg/mL (≈ 1.63 mM); in the data set “physchem” (10% triethanolamine), 294 mg/mL (≈ 1020 mM). For the same molecule, the solubility at 72 h came out at 0.956 mg/mL (≈ 3.33 mM) in the data set “physchem” (20% dimethylacetamide); 0.279 mg/mL (≈ 0.971 mM) in “physchem” (setting [5]); 0.905 mg/mL (≈ 3.15 mM) in “physchem” (setting [6]); 2.99 mg/mL (≈ 10.4 mM) in the data set “physchem” (30% dimethylacetamide); 7.28 mg/mL (≈ 25.3 mM) in the data set “physchem” (40% dimethylacetamide); 2.33 mg/mL (≈ 8.13 mM) in “physchem” (setting [7]). The solubility at 72 h in the data set “physchem” (setting [8]) is 3.58 mg/mL (≈ 12.5 mM); in “physchem” (50% dimethylacetamide) it was 34.9 mg/mL (≈ 122 mM); in “physchem” (60% dimethylacetamide), 52.1 mg/mL (≈ 181 mM); in “physchem” (setting [9]) it was 23.8 mg/mL (≈ 82.7 mM); in “physchem” (setting [10]), 20.2 mg/mL (≈ 70.3 mM); in “physchem” (80% dimethylacetamide), 2630 mg/mL (≈ 9160 mM). Also, the solubility at 72 h in “physchem” (setting [11]) was 102 mg/mL (≈ 354 mM); in the data set “physchem” (setting [12]), 152 mg/mL (≈ 531 mM); in “physchem” (setting [13]) it was 234 mg/mL (≈ 815 mM); in the data set “physchem” (100% peg 400, organic solvent or mixture) it was 1730 mg/mL (≈ 6030 mM); in “physchem” (setting [14]), 102 mg/mL (≈ 355 mM). The molecule further registered a Solubility in “physchem” (100% dimethylacetamide, 72 h) of 4734. mg/mL. Also, the “activities in animal models” value with animal models is “exhibits anti-inflammatory, analgesic, and antipyretic activities”. Besides, the “solubility in alcohols, chloroform, dimethyl sulfoxide and aqueous polyethylene glycol” value in data set [1] is “soluble”. The solubility in water result in data set [1] is reported as “insoluble”. The “symptom relief for acute pain lasting” value in the data set on acute pain (single dose of 200 mg) was 4 to 5 h; with acute pain (single dose of 400 mg) it was 5 to 6 h.

Turning to `CCc1cccc2c3c([nH]c12)[C@@](CC)(CC(=O)O)OCC3` [R(-) etodolac], the “certain purported adverse effects associated with the racemic mixture” value in data set [2] is “substantially reduces”.

With `CCc1cccc2c3c([nH]c12)[C@](CC)(CC(=O)O)OCC3` [S(+)-etodolac, S(+) 1,8-diethyl-1,3,4,9-tetrahydropyrano[3,4-b]indole-1-acetic acid], the “solubility in alcohols, dimethyl sulfoxide, propylene glycol and aqueous polyethylene glycols” value in data set [3] is listed as “soluble”. In data set [4], the “share of the effects of etodolac due to the enantiomer” value is given as “virtually all of the effects of etodolac are due to the S(+) enantiomer”. Moreover, the solubility at 72 h in “physchem” (0.001 n hcl, pH 3.24) was found to be 0.073 mg/mL (≈ 0.254 mM); in “physchem” (0.001 n naoh, pH 8.5) it was 32.3 mg/mL (≈ 112 mM); in “physchem” (0.01 m phosphate buffer, pH 6.4, aqueous buffer), 4.56 mg/mL (≈ 15.9 mM); in “physchem” (0.01 m phosphate buffer, pH 6.63, aqueous buffer) it was 7.81 mg/mL (≈ 27.2 mM); in “physchem” (0.04 m borate buffer, pH 8.61, aqueous buffer), 11.6 mg/mL (≈ 40.4 mM); in “physchem” (0.04 m phosphate buffer, pH 8.59, aqueous buffer), 15.3 mg/mL (≈ 53.1 mM). Also, the solubility at 72 h in the data set “physchem” (0.1 m acetate buffer, pH 4.03, aqueous buffer) came out at 0.093 mg/mL (≈ 0.324 mM); in the data set “physchem” (0.1 m acetate buffer, pH 4.41, aqueous buffer), 0.12 mg/mL (≈ 0.418 mM); in “physchem” (0.1 m phosphate buffer, pH 4.63, aqueous buffer), 0.193 mg/mL (≈ 0.672 mM); in the data set “physchem” (0.1 m phosphate buffer, pH 4.98, aqueous buffer), 0.263 mg/mL (≈ 0.915 mM); in “physchem” (0.1 m phosphate buffer, pH 5.82, aqueous buffer) it was 1.21 mg/mL (≈ 4.22 mM); in “physchem” (0.1 n hcl, pH 1.14) it was 0.08 mg/mL (≈ 0.278 mM). The solubility at 72 h in the data set “physchem” (0.1 n hcl, pH 2.13) was 0.08 mg/mL (≈ 0.278 mM); in “physchem” (0.1 n naoh, pH 7.15), 29.4 mg/mL (≈ 102 mM); in “physchem” (0.2 n naoh, pH 7.3) it was 58.8 mg/mL (≈ 205 mM); in “physchem” (2% triethanolamine), 39.4 mg/mL (≈ 137 mM); in the data set “physchem” (4% triethanolamine), 77.8 mg/mL (≈ 271 mM); in “physchem” (6% triethanolamine), 126 mg/mL (≈ 439 mM). The solubility at 72 h is 235 mg/mL (≈ 816 mM) in “physchem” (8% triethanolamine); 0.468 mg/mL (≈ 1.63 mM) in the data set “physchem” (10% dimethylacetamide); 295 mg/mL (≈ 1030 mM) in “physchem” (10% triethanolamine); 1.25 mg/mL (≈ 4.34 mM) in the data set “physchem” (20% dimethylacetamide); 0.412 mg/mL (≈ 1.43 mM) in the data set “physchem” (setting [5]); 0.663 mg/mL (≈ 2.31 mM) in the data set “physchem” (setting [6]). Besides, the solubility at 72 h in the data set “physchem” (30% dimethylacetamide) was 3.56 mg/mL (≈ 12.4 mM); in the data set “physchem” (40% dimethylacetamide), 9.96 mg/mL (≈ 34.6 mM); in the data set “physchem” (setting [7]), 3.53 mg/mL (≈ 12.3 mM); in “physchem” (setting [8]) it was 3.06 mg/mL (≈ 10.6 mM); in “physchem” (50% dimethylacetamide), 89.1 mg/mL (≈ 310 mM); in “physchem” (60% dimethylacetamide), 256 mg/mL (≈ 892 mM). In addition, the solubility at 72 h in “physchem” (setting [9]) was 43.7 mg/mL (≈ 152 mM); in “physchem” (setting [10]), 16.3 mg/mL (≈ 56.6 mM); in “physchem” (80% dimethylacetamide), 419 mg/mL (≈ 1460 mM); in the data set “physchem” (setting [11]) it was 126 mg/mL (≈ 439 mM); in “physchem” (setting [12]), 643 mg/mL (≈ 2240 mM); in the data set “physchem” (100% dimethylacetamide, organic solvent or mixture), 758 mg/mL (≈ 2640 mM). The values for the solubility at 72 h in “physchem” (setting [13]) and in “physchem” (setting [14]) were 284 mg/mL (≈ 987 mM) and 81.7 mg/mL (≈ 284 mM), respectively. The molecule further registered a Solubility in the data set “physchem” (100% peg 400, 72 h) of 3460. mg/mL.
